Experimental data as given in publication PMC11251039, “Harnessing cholesterol uptake of malaria parasites for therapeutic applications” (EMBO Molecular Medicine, 2024).
“And” between values parts separate entries of the source, which are not always exact repeats. Equal entries are not always repeated. Where two headings read alike, the source gives them in different places.

Experiments:
[1] = system: human hepatoma cells (Huh7); assay: Human hepatoma viability assay (CellTiter-Blue); format: cell-based; details: Homo sapiens, Huh-7; 48 h, Huh7; read-out: IC50, human hepatoma inhibition (viability)
Procedure, shortened: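 Huh7 cells (10,000/well) were seeded and treated the next day with serially diluted compound or DMSO, with media partially renewed with fresh dilutions over two days.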

[2] = system: asexual P. falciparum 3D7 wild-type parasites; assay: P. falciparum asexual growth inhibition assay (SYBR Safe DNA replication); format: cell-based, Plasmodium falciparum; details: for P. falciparum asexual growth, percentage of control: replicate values, source data Fig. 2B; for IC90 / IC50: Plasmodium falciparum; for IC50: read-out: IC50, P. falciparum asexual growth inhibition
Procedure, shortened: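 Sorbitol-synchronised ring-stage cultures at 1% parasitaemia and 1% haematocrit were exposed to 2-fold compound dilutions at 37 °C under microaerophilic conditions for 24, 48 or 72 h. Growth was read by SYBR Safe fluorescence of freeze-thaw lysates, with 200 nM chloroquine or artesunate defining background.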

[3] = system: P. falciparum stage III–IV gametocytes; assay: P. falciparum gametocyte viability assay (MitoTracker, flow cytometry), stage III-IV; format: cell-based, Plasmodium falciparum; details: 48 h; for Gametocyte stage III-IV viability, percentage of control: replicate values, source data Fig. 2C
Procedure, shortened: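 Magnetically enriched gametocytes, stage III-IV (day 7) or stage V (day 10), were exposed to serially diluted compounds in medium with 50 mM N-acetyl-D-glucosamine for 48 hours at 37 °C, microaerophilic. Staining with 500 nM MitoTracker Deep Red FM and Hoechst, then flow cytometry, gave percentage live versus dead gametocytes.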

Q: `COc1cc(NC(C)CCCN)c2ncccc2c1` (centres unmarked) [Primaquine, primaquine, reference compound] was tested. Which IC50 [1] did it give?
A: 18.4 µM

Q: What about the “P. falciparum asexual growth, percentage of control” value ([2]; 0.048828130 uM, 24 h) of the same molecule?
A: 103.5% and 112.3% and 122.3% and 109.6% and 103.8% and 107.6%

Q: And the “P. falciparum asexual growth, percentage of control” value ([2]; 0.097656250 uM, 24 h)?
A: 133.8% and 115.8% and 109.7% and 98.88% and 101.1% and 114.9%

Q: What about the “P. falciparum asexual growth, percentage of control” value ([2]; 0.195312500 uM, 24 h) of the same molecule?
A: 92.88% and 92.1% and 75.42% and 87.41% and 53.27% and 109.2% and 104.7% and 89.49%

Q: What about the “P. falciparum asexual growth, percentage of control” value ([2]; 0.390625000 uM, 24 h) of the same molecule?
A: 101% and 92.22% and 85.08% and 86.3% and 91.98% and 87.62% and 106.4% and 103.7% and 80.96%

Q: And the “P. falciparum asexual growth, percentage of control” value ([2]; 0.781250000 uM, 24 h)?
A: 87.28% and 86.95% and 87.11% and 97.7% and 104.2% and 88.59% and 104.3% and 96.91% and 94.25%

Q: What about the “P. falciparum asexual growth, percentage of control” value ([2]; 1.562500000 uM, 24 h) of the same molecule?
A: 104.9% and 96.53% and 90.19% and 106.5% and 37.96% and 92.95% and 112.9% and 86.68% and 94.95%

Q: What about the “P. falciparum asexual growth, percentage of control” value ([2]; 3.125000000 uM, 24 h) of the same molecule?
A: 98.46% and 91.72% and 71.7% and 85.23% and 66.97% and 105.3% and 93.44% and 88.46% and 77.37%

Q: And the “P. falciparum asexual growth, percentage of control” value ([2]; 6.250000000 uM, 24 h)?
A: 70.33% and 75.07% and 74.44% and 55.89% and 62.38% and 52.2% and 93.44% and 79.9% and 76.14%

Q: And the “P. falciparum asexual growth, percentage of control” value ([2]; 12.500000000 uM, 24 h)?
A: 59.74% and 51.28% and 54.52% and 22.36% and 27.69% and 24.85% and 101.7% and 67.6% and 71.11%

Q: And the “P. falciparum asexual growth, percentage of control” value ([2]; 25.000000000 uM, 24 h)?
A: 32.29% and 12.73% and 20.21% and 8.779% and -12.09% and 0.142% and 58.69% and 51.9% and 34.08%

Q: And the “P. falciparum asexual growth, percentage of control” value ([2]; 50.000000000 uM, 24 h)?
A: 4.003% and -4.24% and -21.02% and -13.23% and -31.85% and -34.48% and 21.18% and 8.951% and 16.84%

Q: What about the IC90 ([2]; 3D7, 24 h) of the same molecule?
A: 41 µM

Q: What about the IC50 ([2]; 3D7, 48 h) of the same molecule?
A: 6.5 µM

Q: And the IC90 ([2]; 3D7, 72 h)?
A: 11.4 µM

Q: What about the IC50 ([2]; 3D7, 72 h) of the same molecule?
A: 2.6 µM

Q: What about the IC50 ([2]; 3D7, 24 h, starting at ring stages) of the same molecule?
A: 11.5 µM

Q: And the “Gametocyte stage III-IV viability, percentage of control” value ([3]; 0.781250000 uM, 0.78125 µM)?
A: 95.42% and 99.73% and 94.08% and 101.8% and 105.1% and 104.7% and 100.9% (2×) and 98.19% and 96.58%

Q: What about the “Gametocyte stage III-IV viability, percentage of control” value ([3]; 1.562500000 uM, 1.5625 µM) of the same molecule?
A: 95.15% (2×) and 94.61% and 99.24% and 100.4% and 98.94% and 101.3% and 96.75% and 94.78% and 98.39% and 95.38%

Q: And the “Gametocyte stage III-IV viability, percentage of control” value ([3]; 3.125000000 uM, 3.125 µM)?
A: 98.92% and 97.04% and 95.42% and 93.41% and 94.06% and 98.34% and 98.94% and 97.34% and 97.99% and 97.59%

Q: And the “Gametocyte stage III-IV viability, percentage of control” value ([3]; 6.250000000 uM, 6.25 µM)?
A: 98.92% and 103.8% and 95.15% and 101.3% and 99.57% and 96.95% and 89.77% and 92.16% and 101.4% and 98.59% and 97.59%

Q: What about the “Gametocyte stage III-IV viability, percentage of control” value ([3]; 12.500000000 uM, 12.5 µM) of the same molecule?
A: 94.88% and 91.65% and 92.46% and 91.95% and 85.99% and 84% and 83.2% and 99.8% and 98.59% and 96.58%

Q: And the “Gametocyte stage III-IV viability, percentage of control” value ([3]; 25.000000000 uM)?
A: 79.16% and 90.84% and 90.57% and 89.5% and 87.42% and 88.71% and 66.47% and 62.28% and 62.48% and 96.99% and 92.97% and 89.75%

Q: And the “Gametocyte stage III-IV viability, percentage of control” value ([3]; 50.000000000 uM)?
A: 68.48% and 81.96% and 79.26% and 79.53% and 71.16% and 70.66% and 55.31% and 29.42% and 60.69% and 80.71% and 75.49% and 72.07%

Q: And the “Gametocyte stage III-IV viability, percentage of control” value ([3]; 100.000000000 uM)?
A: 13.88% and 70.94% and 81.83% and 86.47% and 12.9% and 10.48% and -20.11% and -20.13% and -19.64% and 38.56% and 39.79% and 36.92%

Q: And the “Gametocyte stage III-IV viability, percentage of control” value ([3]; 200.000000000 uM)?
A: -26.52% and -4.004% and -1.274% and -24.53% and -24.5% and -24.31% and -27.02% and -23.13% and -23.83%

Q: What about the viability at 0.78125 µM ([3]; Plasmodium falciparum, read-out: Gametocyte stage III-IV viability, percentage of control, 0.781250000 uM, 48 h, replicate values, source data Fig. 2C) of the same molecule?
A: 101%

Q: And the viability at 1.5625 µM ([3]; Plasmodium falciparum, read-out: Gametocyte stage III-IV viability, percentage of control, 1.562500000 uM, 48 h, replicate values, source data Fig. 2C)?
A: 98.8%

Q: And the viability at 3.125 µM ([3]; Plasmodium falciparum, read-out: Gametocyte stage III-IV viability, percentage of control, 3.125000000 uM, 48 h, replicate values, source data Fig. 2C)?
A: 93.3%

Q: What about the viability at 6.25 µM ([3]; Plasmodium falciparum, read-out: Gametocyte stage III-IV viability, percentage of control, 6.250000000 uM, 48 h, replicate values, source data Fig. 2C) of the same molecule?
A: 94.2%

Q: What about the viability at 12.5 µM ([3]; Plasmodium falciparum, read-out: Gametocyte stage III-IV viability, percentage of control, 12.500000000 uM, 48 h, replicate values, source data Fig. 2C) of the same molecule?
A: 89%

Q: What about the IC50 ([3]; Plasmodium falciparum, read-out: IC50, P. falciparum gametocyte stage III-IV inhibition) of the same molecule?
A: 60 µM
